What is called EC50 is the midpoint of the concentration-response curve. Lower therefore signals a more potent agent. What is called CC50 is the concentration that lowers cell viability or growth by half. The low end stands for harm at low concentration, the high end for better tolerance by the cells.

Here are results for six compounds from US9132129B2, “Antiviral compounds” (KATHOLIEKE UNIVERSITEIT LEUVEN, priority 2010, dated 2015).

Holding throughout (type): cell-based
Series [1] concerns HIV-1(NL4.3). Description: MT4 based cytopathic effect assay (anti-HIV activity). The settings on record: Human immunodeficiency virus 1, MT4; HIV-infected MT-4 cells, MTT, 50% protection. The protocol: MT4 based Cytopathic Effect Assay
(§1) A rapid and automated assay procedure was used for the in vitro evaluation of anti-HIV agents. An HTLV-1 transformed T4-cell line MT-4, which was previously shown to be highly susceptible to and permissive for HIV infection, served as the target cell line. Inhibition of the HIV-induced cytopathogenic effect was used as the end point. The viability of both HIV- and mock-infected cells was assessed spectrophotometrically via in situ reduction of 3-(4,5-dimethylthiazol-2-yl)-2,5-diphenyltetrazolium bromide (MTT). […] The percent protection achieved by the compound in HIV-infected cells was calculated by the following formula:
[formula] whereby (ODT)HIV is the optical density measured with a given concentration of the test compound in HIV-infected cells; (ODC)HIV is the optical density measured for the control untreated HIV-infected cells; (ODC)MOCK is the optical density measured for the control untreated mock-infected cells; all optical density values were determined at 540 nm. […] The ratio of CC50 to EC50 was defined as the selectivity index (SI).
(§2) Cells: MT-4 cells (Miyoshi et al., 1982) were grown and maintained in RPMI 1640medium supplemented with 10% heat-inactivated fetal calf serum, 2 mM I-glutamine, 0.1% sodium bicarbonate, and 20æg of gentamicin per ml.
Viruses: The HIV-1(NL4.3) strain (Adachi et al., 1986) is a molecular clone obtained from the National Institutes of Health (Bethesda, Md.).
(In general: Cytopathic effects are the visible damage that an infection or toxin causes in cultured cells.)

A short description of series [2]: MT4 cytotoxicity in mock-infected cells (MTT). To be noted: human, mock-infected MT-4 cells. The protocol: as §1, with “formula: […]” for “formula:”
Examples of inhibition of cell proliferation by particular compounds of the invention can be found by looking at the respective CC50 values in the MT-4 cell line.
as §2

For series [3], the system named is HIV-1 virus (NL4.3 strain). Description: MT-2 based antiviral assay (S8737E). To be noted: Human immunodeficiency virus 1, 72 h; MT2 cells, 3 days, JC53BL β-Gal reporter readout. An excerpt: MT-2 Based Antiviral Assay (S8737E)
Much like the MT-4 based cytopathic effect assay, this assay is designed to determine the effects of small molecules on the replication of HIV-1 in the lymphobastoid cell line, MT2, and is able to detect the antiviral effect of compounds acting at any stage of the HIV-1 replication cycle. The assay, along with its associated cytotoxicity assay, was described in detail in 2005 in a paper by Cao et al (Antimicrobial Agents and Chemotherapy 2005; 49(9), p 3833-3841).
Briefly; MT2 cells are infected with the HIV-1 virus (NL4.3 strain) and transferred to assay plates containing serial dilutions of compounds to be tested. The assay plates are incubated for 3 days (MT2) to allow for several rounds of viral replication/infection to take place. At the end of this time, supernatant is transferred into new plates containing JC53BL cells.
JC53BL cells express CXCR4, CCR5 and CD4 receptors, and HIV-1-LTR-β-Gal. Under normal culture conditions undetectable levels of β-Galactosidase are expressed, but in the presence of HIV-1, the viral Tat protein is able to activate the HIV-1-LTR in the JC53BL cells resulting in the increased expression of the β-Gal enzyme. The expression can be measured using the ‘FluorAce β-Galactosidase reporter’ assay. The levels of β-Gal are directly proportional to the levels of Tat (up to a threshold) allowing virus quantification. Compounds that inhibit virus replication will give rise to a reduced signal and a dose-response curve for each compound can be generated. This is then used to determine the IC50 for each compound, a measure of the compound's potency, in a manner similar to the MT-4 based cytopathic effect assay.

A short description of series [4]: in vitro. To be noted: human. The protocol: The MT-2 based antiviral assay requires a separate cytotoxicity assessment of the compounds. This was performed using a 3 day MT-2 cytotoxicity assay as follows:
3 Day MT2 Cytotoxicity Assay (S8738E)
The assay is designed to test whether or not compounds have cytotoxic activity in MT2 cells by measuring the viability of these cells in the presence of compounds. The assay is carried out by adding MT2 assay plates containing serial dilutions of the compounds to be screened. After 3 days incubation, the viability of the cells remaining in the plates is assayed using the commercially available reagent CellTiter-Glo (Promega Ltd).

For the compound `CCCC(C(=O)O)c1c(C)nc2cc3c(cc2c1-c1ccc(C)cc1)CCC3` (centres unmarked) [Cpd012, 2-(2-methyl-4-p-tolyl-7,8-dihydro-6H-cyclopenta[g]quinolin-3-yl)pentanoic acid], the EC50 in series [1] came to 0.53 µM; in series [3], 1.68 µM. In series [2], this compound returned a CC50 of 82 µM. In series [4], this compound registered a cytotoxic concentration (CC50) at 3 days greater than 20 µM.

Regarding `CCCC(C(=O)O)c1c(C)nc2ccc3c(c2c1-c1ccc(C)cc1)CCCC3` (centres unmarked) [Cpd003, 2-(3-methyl-1-4-p-tolyl-7,8,9,10-tetrahydrobenzo[f]quinolin-2-yl)pentanoic acid], the EC50 in series [1] worked out at 1.45 µM. In addition, the CC50 in series [2] was 92 µM.

`Cc1ccc(-c2c(C(OC(C)(C)C)C(=O)O)c(C)nc3cc4c(cc23)CCCC4)cc1` (centres unmarked) [Cpd002, tert-butoxy-(2-methyl-4-p-tolyl-6,7,8,9-tetrahydro-benzo[g]quinolin-3-yl)-acetic acid]: a half-maximal response in series [3] (EC50) required 0.46 µM. Further, in series [4], the CC50 at 3 days was greater than 10 µM.

Take `CCCC(C(=O)O)c1c(C)nc2c3ccccc3nn2c1-c1ccc(C)cc1` (centres unmarked) [Cpd047, 2-(2-methyl-4-p-tolylpyrimido[1,2-b]indazol-3-yl)pentanoic acid]: half-maximal cytotoxicity in series [2] (CC50) was put at 200 µM. In series [3], the EC50 was greater than 20 µM.

The compound `CCCC(C(=O)O)c1c(C)nc2ccc3c(c2c1-c1ccc(C)cc1)CCC3` (centres unmarked) [Cpd023, 2-(3-methyl-1-p-tolyl-8,9-dihydro-7H-cyclopenta[f]quinolin-2-yl)pentanoic acid] gave an EC50 in series [1] of 4.5 µM. In series [2], this compound displayed a CC50 of 114 µM.

Turning to `CCCC(C(=O)O)c1c(C)nc2cc3c(cc2c1-c1ccc(C)cc1)CCCC3` (centres unmarked) [Cpd001, 2-(-2-methyl-4-p-tolyl-6,7,8,9-tetrahydrobenzo[g]quinolin-3-yl)pentanoic acid], in series [1], the 50% effective concentration (EC50) came to 1.45 µM. Moreover, in series [2], the midpoint of cytotoxicity, the CC50, lay at 92 µM.
